Reference: PubChem BioAssay (NCI)
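Briefly, cells in 96-well plates were exposed to five compound concentrations for 48 h, and endpoints were estimated by linear interpolation. TGI marks complete inhibition of growth.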

How the values were obtained:
Experiment in all cases: NCI anticancer screen, dose series, 48 h
[1] = system: SW-620 colon
[2] = system: SR leukemia
[3] = system: M14 melanoma
[4] = system: UACC-62 melanoma
[5] = system: MOLT-4 leukemia
[6] = system: OVCAR-3 ovarian
[7] = system: A498 renal
[8] = system: K-562 leukemia
[9] = system: SF-268 CNS
[10] = system: OVCAR-8 ovarian
[11] = system: SNB-75 CNS

Structure (SMILES) | TGI [1] [µM] | TGI [2] [µM] | TGI [3] [µM] | TGI [4] [µM] | TGI [5] [µM] | TGI [6] [µM] | TGI [7] [µM] | TGI [8] [µM] | TGI [9] [µM] | TGI [10] [µM] | TGI [11] [µM]
Cc1ccc(C(=O)Nc2ccc(S(=O)(=O)O)c3cc(S(=O)(=O)O)cc(S(=O)(=O)O)c23)cc1NC(=O)c1cccc(NC(=O)Nc2cccc(C(=O)Nc3cc(C(=O)Nc4ccc(S(=O)(=O)O)c5cc(S(=O)(=O)O)cc(S(=O)(=O)O)c45)ccc3C)c2)c1 (tested in a mixture with another compound) | > 50 | > 50 | > 50 | > 50 | > 50 | > 50 | > 50 | > 50 | > 50 | > 50 | > 50
CCOC(=O)C(C(=O)OCC)=C1NC2(c3ccccc3Nc3ccc(C)cc32)C(C(=O)OC)S1 (stereo unspecified) | > 100 | > 100 | > 100 | > 100 | > 100 | > 100 | > 100 | > 100 | > 100 | > 100 | 62.4
CC(C)OC(=O)[C@@H](O)[C@H](CO)C1=CC([Si](C)(C)c2ccccc2)=CON1 | > 100 | > 100 | > 100 | > 100 | > 100 | > 100 | > 100 | > 100 | > 100 | > 100 | 69.2
CCN(CC)CCCC(C)NC(=O)c1ccc2c(c1)C(=O)c1ccccc1C2=O (stereo unspecified) | 43.1 | 78.1 | 33.3 | 39.3 | 52.8 | 32.2 | 42.3 | 48.4 | 80.4 | 66 | > 86.9
C=C(C(=O)OC)c1cc2ccccc2n1S(=O)(=O)c1ccccc1 | 4.63 | > 100 | 9.55 | 15 | > 24 | 11.4 | 5.69 | > 100 | 8.22 | 8.42 | 14.5
N#Cc1ccc(Oc2nc3ccc(C(F)(F)F)cc3nc2-c2ccccc2)cc1 | 35.7 | 9.86 | 29.7 | > 100 | 43.6 | 44.8 | 31.2 | 55.9 | 76.4 | 34.4 | 32.1
S=C(Nc1ccccn1)Nc1ccccc1Cl | > 100 | > 100 | > 100 | > 100 | > 100 | > 100 | > 100 | > 100 | > 78 | > 100 | > 80.4
O=C1CCCC2=C1CC1=C(CCCC1=O)N2c1ccccc1 | > 100 | > 100 | > 100 | > 100 | > 100 | > 100 | > 100 | > 100 | > 100 | > 100 | > 100
O=[N+]([O-])c1c2nc3n(c2cc2c1nc1n2CCC1)CCC3 | > 100 | > 100 | > 100 | > 100 | > 100 | > 100 | > 100 | > 100 | > 100 | > 100 | > 100
CC(C)(C)[C@H]1CCC2(OCCO2)[C@](O)(CCCO)C1 | > 100 | > 100 | > 100 | > 100 | > 100 | > 100 | > 100 | > 100 | > 100 | > 100 | > 100
CC1(C)CCC(=O)NC1CC(=O)CC1NC(=O)CCC1(C)C (stereo unspecified) | > 100 | > 100 | > 100 | > 100 | > 100 | > 100 | > 100 | > 100 | > 100 | > 100 | > 100
N#Cc1nc(CCC(c2nc(C#N)c(N)o2)N2C(=O)c3ccccc3C2=O)oc1N (stereo unspecified) | > 100 | > 100 | > 100 | > 100 | > 100 | > 100 | > 100 | > 100 | > 100 | – | > 100
COc1cc2c(cc1OCCCC(=O)Nc1cc(C(=O)NCCCN(C)C)n(C)n1)N=CC1CCCN1C2=O (stereo unspecified) | > 25 | 0.59 | > 27.6 | – | 3.65 | 74.2 | 12.4 | 3.8 | > 50.4 | > 24 | 22.3
O=C(OCCC12CC3CC(CC(C3)C1)C2)c1ccc(NCc2cc(O)ccc2O)cc1 | 6.56 | 4.43 | 3.37 | 3.61 | 10.3 | 0.626 | 4.83 | 10.6 | 12.7 | – | 2.99
O=C1ON=C2C3CC4CC12CC1(C3)C(=O)ON=C41 | > 100 | > 100 | > 100 | > 100 | > 100 | > 100 | > 100 | > 100 | – | > 100 | > 100
